Patent US9656990B2, “Cathepsin cysteine protease inhibitors” (Merck Sharp & Dohme Corp., priority 2014, dated 2017)

Experiments:
human cathepsin F = target: T1, human cathepsin F (Homo sapiens, UniProt Q9UBX1); test: Cathepsin F Assay; format: biochemical; conditions: IP from dose response curve; Z-Phe-Arg-AMC substrate, pH 5.5; read-out: hCat F (IP (nM))
T1 sequence (Q9UBX1 271-484): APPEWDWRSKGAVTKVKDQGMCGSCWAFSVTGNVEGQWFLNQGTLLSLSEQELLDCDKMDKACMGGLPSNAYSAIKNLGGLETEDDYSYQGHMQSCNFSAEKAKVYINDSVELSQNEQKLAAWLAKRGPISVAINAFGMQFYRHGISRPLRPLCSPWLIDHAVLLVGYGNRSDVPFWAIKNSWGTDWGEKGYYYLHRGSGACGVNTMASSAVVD
In short: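 Human cathepsin F (10 nM) preincubated 15 min at room temperature with compounds in 50 mM MES pH 5.5, 2.5 mM EDTA, 2.5 mM DTT, 10% DMSO. Z-Phe-Arg-AMC (8 μM) added; AMC release read by fluorescence (Ex 360/Em 460 nm) over 20 min, inhibition fit to dose-response model.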

human cathepsin K = human cathepsin K (UniProt P43236, Y175D/V274L, species not given); test: Cathepsin K Assay; format: biochemical; conditions: IP from dose response curve; Z-Leu-Arg-AMC substrate, pH 5.5; read-out: hrbCat K (IP (nM))

N#CC1(NC(=O)[C@@H]2CCCC[C@H]2c2nn(-c3ccc(C(F)(F)F)cn3)cc2-c2ccc(N3CCS(=O)(=O)CC3)cc2)CC1 [Example 143, (1R,2R)-N-(1-cyanocyclopropyl)-2-(4-(4-(1,1-dioxidothiomorpholino)phen-yl)-1-(5-(trifluoromethyl)pyridin-2-yl)-1H-pyrazol-3-yl)cyclohexanecarboxamide]
IC50 (human cathepsin F): 395 nM
IC50 (human cathepsin K): 1.17 nM

N#CC1(NC(=O)[C@@H]2C[C@@H](F)CC[C@H]2c2nn(-c3ccc(F)cn3)cc2-c2ccc(N3CCS(=N)(=O)CC3)cc2)CC1 [Example 14, (1R,2R,5S)-N-(1-cyanocyclopropyl)-5-fluoro-2-(1-(5-fluoropyridin-2-yl)-4-(4-(1-imino-1-oxidothiomorpholino)phenyl)-1H-pyrazol-3-yl)cyclohexanecarboxamide]
IC50 (human cathepsin F): 2020 nM
IC50 (human cathepsin K): 2 nM

N#CC1(NC(=O)[C@@H]2CC(F)(F)CC[C@H]2c2nn(-c3ccc(F)cc3)cc2-c2ccc(N3CCS(=O)(=O)CC3)cc2)CC1 [Example 83, (1R,2R)-N-(1-cyanocyclopropyl)-2-(4-(4-(1,1-dioxidothiomorpholino)phen-yl)-1-(4-fluorophenyl)-1H-pyrazol-3-yl)-5,5-difluorocyclohexanecarbox-amide]
IC50 (human cathepsin F): 28 nM
IC50 (human cathepsin K): 0.47 nM

N#Cc1ccccc1-n1cc(-c2ccc(N3CCS(=O)(=O)CC3)cc2)c([C@@H]2CCCC[C@H]2C(=O)NC2(C#N)CC2)n1 [Example 91, (1R,2R)-N-(1-cyanocyclopropyl)-2-(1-(2-cyanophenyl)-4-(4-(1,1-dioxidothiomorpholino)phen-yl)-1H-pyrazol-3-yl)cyclohexanecarboxamide]
IC50 (human cathepsin F): 1020 nM
IC50 (human cathepsin K): 1.02 nM

C[C@@H](C#N)NC(=O)[C@@H]1CC(F)(F)CC[C@H]1c1nn(-c2ccc(F)cc2)c(CO)c1-c1ccc(N2CCS(=O)(=O)CC2)cc1 [Example 61, (1R,2R)-N-((S)-1-cyanoethyl)-2-(4-(4-(1,1-dioxidothiomorpholino)phen-yl)-1-(4-fluorophenyl)-5-(hydroxymethyl)-1H-pyrazol-3-yl)-5,5-difluorocyclohexanecarbox-amide]
IC50 (human cathepsin F): 121 nM
IC50 (human cathepsin K): 1.61 nM

CC(C)[C@@H](C#N)NC(=O)[C@@H]1CCC(F)(F)C[C@H]1c1nn(-c2ncccc2F)cc1-c1ccc(N2CCS(=N)(=O)CC2)cc1 [Example 35, (1R,2R)-N-((S)-1-cyano-2-methylpropyl)-4,4-difluoro-2-(1-(3-fluoropyridin-2-yl)-4-(4-(1-imino-1-oxidothiomorpholino)phenyl)-1H-pyrazol-3-yl)cyclohexanecarboxamide]
IC50 (human cathepsin F): 4890 nM
IC50 (human cathepsin K): 9.69 nM

CC(C)OC(=O)N1CC(c2ccc(-c3cn(-c4ccc(F)cc4)nc3[C@@H]3CCCC[C@H]3C(=O)NC3(C#N)CC3)cc2)C1 [Example 6, Isopropyl 3-(4-(3-((1R,2R)-2-((1-cyanocyclopropyl)carbamoyl)cyclohexyl)-1-(4-fluorophenyl)-1H-pyrazol-4-yl)phenyl)azetidine-1-carboxylate]
IC50 (human cathepsin F): 49 nM
IC50 (human cathepsin K): 0.53 nM

N#CC1(NC(=O)[C@@H]2CCCC[C@H]2c2nn(-c3ccccc3F)cc2-c2ccc(N3CCS(=O)(=O)CC3)cc2)CC1 [Example 98, (1R,2R)-N-(1-cyanocyclopropyl)-2-(4-(4-(1,1-dioxidothiomorpholino)phen-yl)-1-(2-fluorophenyl)-1H-pyrazol-3-yl)cyclohexanecarboxamide]
IC50 (human cathepsin F): 946 nM
IC50 (human cathepsin K): 0.91 nM

N#Cc1cc(Cl)ccc1-n1cc(-c2ccc(N3CCS(=O)(=O)CC3)cc2)c([C@@H]2CCCC[C@H]2C(=O)NC2(C#N)CC2)n1 [Example 105, (1R,2R)-2-(1-(4-chloro-2-cyanophenyl)-4-(4-(1,1-dioxidothiomorpholino)phen-yl)-1H-pyrazol-3-yl)-N-(1-cyanocyclopropyl)cyclohex-anecarboxamide]
IC50 (human cathepsin F): 1260 nM
IC50 (human cathepsin K): 3.23 nM

CN=S1(=O)CCN(c2ccc(-c3cn(-c4ccc(F)cn4)nc3[C@@H]3CC(F)(F)CC[C@H]3C(=O)NC3(C#N)CC3)cc2)CC1 [Example 9, (1R,2R)—N-(1-Cyanocyclopropyl)-4,4-difluoro-2-(1-(5-fluoropyridin-2-yl)-4-(4-(1-(methylimino)-1-oxidothiomorpholino)phenyl)-1H-pyrazol-3-yl)cyclohexanecarboxamide]
IC50 (human cathepsin F): 3670 nM
IC50 (human cathepsin K): 2.56 nM

Cc1c(-c2ccc(N3CCS(=O)(=O)CC3)cc2)c([C@@H]2CCCC[C@H]2C(=O)NC2(C#N)CC2)nn1-c1ccc(F)cn1 [Example 157, (1R,2R)-N-(1-cyanocyclopropyl)-2-(4-(4-(1,1-dioxidothiomorpholino)phen-yl)-1-(5-fluoropyridin-2-yl)-5-methyl-1H-pyrazol-3-yl)cyclohexanecarboxamide]
IC50 (human cathepsin F): 2980 nM
IC50 (human cathepsin K): 4.26 nM

Cc1c(-c2ccc(N3CCS(=O)(=O)CC3)cc2)c([C@@H]2CCC(F)(F)C[C@H]2C(=O)NC2(C#N)CC2)nn1-c1ccc(F)cn1 [Example 27, (1R,2R)-N-(1-cyanocyclopropyl)-2-(4-(4-(1,1-dioxidothiomorpholino)phen-yl)-1-(5-fluoropyridin-2-yl)-5-methyl-1H-pyrazol-3-yl)-5,5-difluorocyclohexanecarbox-amide]
IC50 (human cathepsin F): 170 nM
IC50 (human cathepsin K): 1.28 nM

COc1ccc(-n2cc(-c3ccc(N4CCS(=O)(=O)CC4)cc3)c([C@@H]3CCCC[C@H]3C(=O)NC3(C#N)CC3)n2)cn1 [Example 168, (1R,2R)-N-(1-cyanocyclopropyl)-2-(4-(4-(1,1-dioxidothiomorpholino)phen-yl)-1-(6-methoxypyridin-3-yl)-1H-pyrazol-3-yl)cyclohexanecarboxamide]
IC50 (human cathepsin F): 763 nM
IC50 (human cathepsin K): 2.4 nM

Cc1c(-c2ccc(N3CCS(=N)(=O)CC3)cc2)c([C@@H]2CCCC[C@H]2C(=O)N[C@@H](C)C#N)nn1-c1ncccc1F [Example 51, (1R,2R)-N-((S)-1-cyanoethyl)-2-(1-(3-fluoropyridin-2-yl)-4-(4-(1-imino-1-oxidothiomorpholino)phenyl)-5-methyl-1H-pyrazol-3-yl)cyclohexanecarboxamide]
IC50 (human cathepsin F): 3870 nM
IC50 (human cathepsin K): 7.41 nM

N#CC1(NC(=O)[C@@H]2CCCC[C@H]2c2nn(-c3cncc(F)c3)cc2-c2ccc(N3CCS(=O)(=O)CC3)cc2)CC1 [Example 165, (1R,2R)-N-(1-cyanocyclopropyl)-2-(4-(4-(1,1-dioxidothiomorpholino)phen-yl)-1-(5-fluoropyridin-3-yl)-1H-pyrazol-3-yl)cyclohexanecarboxamide]
IC50 (human cathepsin F): 319 nM
IC50 (human cathepsin K): 0.9 nM

N#CC1(NC(=O)[C@@H]2CCCC[C@H]2c2nn(-c3cccc(OC(F)(F)F)c3)cc2-c2ccc(N3CCS(=O)(=O)CC3)cc2)CC1 [Example 122, (1R,2R)-N-(1-cyanocyclopropyl)-2-(4-(4-(1,1-dioxidothiomorpholino)phen-yl)-1-(3-(trifluoromethoxy)phenyl)-1H-pyrazol-3-yl)cyclohexanecarboxamide]
IC50 (human cathepsin F): 466 nM
IC50 (human cathepsin K): 0.78 nM

N#CC1(NC(=O)[C@@H]2C[C@@H](F)CC[C@H]2c2nn(-c3ccc(F)cc3)cc2-c2ccc(N3CCS(=N)(=O)CC3)cc2)CC1 [Example 16, (1R,2R,5S)-N-(1-cyanocyclopropyl)-5-fluoro-2-(1-(4-fluorophenyl)-4-(4-(1-imino-1-oxidothiomorpholino)phenyl)-1H-pyrazol-3-yl)cyclohexanecarboxamide]
IC50 (human cathepsin F): 2600 nM
IC50 (human cathepsin K): 2.83 nM

CS(=O)(=O)N1CCN(C(=O)c2ccc(-c3cn(-c4ccc(F)cc4)nc3[C@@H]3CCCC[C@H]3C(=O)NC3(C#N)CC3)cc2)CC1 [Example 93, (1R,2R)-N-(1-cyanocyclopropyl)-2-(1-(4-fluorophenyl)-4-(4-(4-(methylsulfonyl)piperazine-1-carbonyl)phenyl)-1H-pyrazol-3-yl)cyclohexanecarboxamide]
IC50 (human cathepsin F): 2350 nM
IC50 (human cathepsin K): 5.02 nM

N#Cc1ccc(-n2cc(-c3ccc(N4CCS(=O)(=O)CC4)cc3)c([C@@H]3CCCC[C@H]3C(=O)NC3(C#N)CC3)n2)cc1 [Example 100, (1R,2R)-N-(1-cyanocyclopropyl)-2-(1-(4-cyanophenyl)-4-(4-(1,1-dioxidothiomorpholino)phen-yl)-1H-pyrazol-3-yl)cyclohexanecarboxamide]
IC50 (human cathepsin F): 212 nM
IC50 (human cathepsin K): 0.87 nM

CC(C)(O)c1cccc(-n2cc(-c3ccc(N4CCS(=O)(=O)CC4)cc3)c([C@@H]3CCCC[C@H]3C(=O)NC3(C#N)CC3)n2)c1 [Example 96, (1R,2R)-N-(1-cyanocyclopropyl)-2-(4-(4-(1,1-dioxidothiomorpholino)phen-yl)-1-(3-(2-hydroxypropan-2-yl)phenyl)-1H-pyrazol-3-yl)cyclohexanecarboxamide]
IC50 (human cathepsin F): 824 nM
IC50 (human cathepsin K): 1.27 nM

N#CC1(NC(=O)[C@@H]2CCCC[C@H]2c2nn(-c3cccnc3)cc2-c2ccc(N3CCS(=O)(=O)CC3)cc2)CC1 [Example 164, (1R,2R)-N-(1-cyanocyclopropyl)-2-(4-(4-(1,1-dioxidothiomorpholino)phen-yl)-1-(pyridin-3-yl)-1H-pyrazol-3-yl)cyclohexanecarboxamide]
IC50 (human cathepsin F): 697 nM
IC50 (human cathepsin K): 0.48 nM

N#CC1(NC(=O)[C@@H]2CCCC[C@H]2c2nn(-c3ccncc3)cc2-c2ccc(N3CCS(=O)(=O)CC3)cc2)CC1 [Example 163, (1R,2R)-N-(1-cyanocyclopropyl)-2-(4-(4-(1,1-dioxidothiomorpholino)phen-yl)-1-(pyridin-4-yl)-1H-pyrazol-3-yl)cyclohexanecarboxamide]
IC50 (human cathepsin F): 237 nM
IC50 (human cathepsin K): 0.32 nM
